The results in this text go back to patent publication US20220395500A1, “SMALL MOLECULE ACTIVATORS OF INTERFERON REGULATORY FACTOR 3 AND METHODS OF USE THEREOF” (Neuralexo, Inc., priority 2020, published 2022).

Like-named read-outs stand apart in the source and are kept apart here.

Data set [1] concerns IP-10 in human monocyte-derived macrophages. Kind of data set: IP-10 induction in human monocyte-derived macrophages (ELISA). The conditions noted are these: dose response. The class given is cell-based. An excerpt: FIG. 24 is a graph of NA-42 dose dependent IP-10 induction in human monocyte-derived macrophages. IP-10 expression was monitored by Human CXCL10/IP10 ELISA (R&D Systems, Minneapolis, Minn.) and is expressed as pg/ml. Shown are group means+/−standard deviation; ****p<0.0001.
FIG. 25 is a graph of ND-13 dose dependent IP-10 induction in human monocyte-derived macrophages. IP-10 expression was monitored by Human CXCL10/IP10 ELISA (R&D Systems, Minneapolis, Minn.) and is expressed as pg/ml. Shown are group means+/−standard deviation; ****p<0.0001.
As discussed above with regard to Example 19, target specificity of chemical entities corresponding to the ND and NA chemofamilies was examined by dose-dependent expression of IP-10 in mBMDMs. In this example, 23, target specificity of chemical entities corresponding to the ND and NA chemofamiles was examined by determining dose-dependent expression of IP-10 in human primary cells, specifically monocyte-derived macrophages. […] For FIGS. 24-25, IP-10 expression was monitored by Human CXCL10/IP10 ELISA (R&D Systems, Minneapolis, Minn.), and is expressed at FIGS. 24-25 as pg/ml.
(ELISA stands for enzyme-linked immunosorbent assay.)

Data set [2] has as its system NF-κB-SEAP reporter in J774-Dual cells. Nature of the data set: J774-Dual NF-κB-SEAP reporter assay. The data set is classed as cell-based, mouse. The conditions noted are these: Mus musculus, read-out: J774 NFkB EC50. As for the experimental part:
First, optimal assay conditions and assay quality in 384-well format were determined. As mentioned, the mouse macrophage J774 cell line (J774-Dual, InvivoGen) stably transfected with the same inducible reporters described above (e.g., IRF-Lucia luciferase and NF-κB-SEAP) was used. The responsiveness of the J774-Dual cell line was investigated in an array of assay conditions to obtain sensitive and reproducible results for the activation of the IRF and NF-κB reporters. An optimal plating density and conditions for these cells was established for these cells in a 384-well format. Assay work-flow is similar to that discussed above for the THP1-Dual assay without a need for cell differentiation. Thus, cells are seeded directly in growth medium and incubated at 37° C. in a 5% C02 incubator for 24 hours prior to the programmed treatments being added as described herein.
The primary high throughput screen used the HTS platform of human THP1 monocyte cells containing the IRF-Lucia luciferase and NFκB-SEAP (secreted embryonic alkaline phosphatase) dual reporter (THP1-Dual, Invivogen), enabling the simultaneous study of the IRF and NFκB signaling pathways respectively. As discussed, the Lucia luciferase reporter gene is under the control of an ISG54 (interferon-stimulated gene) minimal promoter in conjunction with five interferon-stimulated response elements (ISRE). The SEAP gene is driven by an IFNβ minimal promoter fused to five copies of the NFκB consensus transcriptional response element and three copies of the c-Rel binding site. Both IRF-Lucia luciferase and NFκB-SEAP reporter proteins are secreted and readily measurable in the cell culture supernatant when using QUANTI-Luc™ and QUANTI-Blue™ detection reagents, respectively. Identified “hits” were confirmed in a secondary screen with an 8-point dose response curve. Hits were further screened for activity in the mouse using the mouse J774 macrophage-like cell line containing the identical reporter constructs (J774-Dual, Invivogen).
The OTRADI Small Molecule Library of approximately 246,000 diverse compounds (see below for description) was screened using the THP1-Dual based HTS platform described above. All transfer steps in the screen are fully automated, thus reducing variability. Primary screening included a single data point or dose for each molecule. After data normalization was applied for each assay run, “hit” selection was performed on the plates that pass the quality control (QC) criterion. Hits were defined as samples having values above the activity cutoff determined based on noise level of the assay to reduce false positive rates. In the pilot study discussed above this activity value was >3σ above the ISRE mean with the added criteria of NFκB activation being lower than […] from the mean to identify IRF selective compounds. The ratio of ISRE:NFκB activity was also calculated as a selectivity index for prioritizing hit selection. Primary hits underwent secondary screening to determine the 50% effective concentration (EC50) and 50% cytotoxic concentration (CC50) of these agents using an 8-point dose-response curve in the human THP1-Dual cells. Cytotoxicity was measured in the plate using Cell Titer Glo (Promega). Identified candidate compounds were further screened (orthogonal screen) for cross species activity in the validated mouse J774-Dual assay using an 8-point dose-response format to determine EC50 and CC50 values as well as ISRE:NFκB ratios. A general process flow for the experimental design laid out above is depicted at FIG. 12.
(In general: Reporter assays use an easily measured gene product as a stand-in for the process of interest.)

A short description of a further data set: J774-Dual cytotoxicity. The class given is cell-based, mouse. The conditions noted are these: mouse, J774-Dual cells, read-out: J774 cytotox CC50. A digest of the protocol:
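CC50 derived from 8-point concentration series in mouse J774-Dual reporter cells, with viability read by CellTiter-Glo in the same plate. Run in parallel with EC50 and ISRE:NFκB ratio determination for cross-species confirmation.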

Data set [3] concerns IRF-Lucia luciferase reporter (ISRE) in J774-Dual cells. Nature of the data set: J774-Dual IRF-Lucia luciferase reporter assay (ISRE activation). The class given is cell-based, mouse. The conditions noted are these: for EC50: Mus musculus, read-out: J774 IRF EC50. A digest of the protocol: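 Eight-point dose-response in J774-Dual mouse macrophage-like cells gave EC50, plus CC50 by in-plate CellTiter-Glo, and ISRE:NF-κB ratios. Cells plated 24 h at 37 °C, 5% CO2 without differentiation; supernatant Lucia luciferase and SEAP measured with QUANTI-Luc and QUANTI-Blue.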

Where [4] appears, read: J774, Mouse Reporter Cell Line, 8-point dose response.
[5] abbreviates: J774, Mouse Reporter Cell Line J774.
Where [6] appears, read: Mouse Reporter Cell Line J774, at peak.

Usually EC50 stands for the midpoint of the concentration-response curve. The CC50 is the concentration giving 50% cytotoxicity.

For `CCOc1cccc(COc2ccc(C(=O)Nc3ccc(N4CCN(C(=O)c5cccs5)CC4)cc3)cc2)c1` [NA-42, 4-((3-ethoxybenzyl)oxy)-N-(4-(4-(thiophene-2-carbonyl)piperazin-1-yl)phenyl)benzamide], in data set [1], the “IP-10 induction in human monocyte-derived macrophages” value was “dose-dependent IP-10 induction”.
With `COc1ccc(C(=O)Nc2ccc(OCc3ccccc3)cc2)cc1[N+](=O)[O-]` [NA-44], the figures for the EC50 in data set [2] (setting [4]) and in data set [3] (setting [4]) were 7.65 µM and 7.38 µM, respectively. In “J774-Dual cytotoxicity” (Mouse Reporter Cell Line), the cytotoxic concentration (CC50) was above 25 µM. The “J774 IRF % activation at peak” value in data set [3] (Mouse Reporter Cell Line) stood at 2.085%.
Taken in the same sequence, the figures for `O=C(Nc1ccc(N2CCN(C(=O)c3cccs3)CC2)cc1)c1ccc(OCc2ccccc2)nc1` [NA-59] were 4.37 µM, 3.09 µM, 36.1 µM and 150.5%.
As for `Cc1ccc(NC(=O)c2cc(NC(=O)c3ccccc3)ccc2N2CCOCC2)cc1Cl` [NB-1], the EC50 was determined as 19.9 µM in data set [2] (setting [5]) and 6.57 µM in data set [3] (setting [5]). For the same compound, the cytotoxic concentration (CC50) in the data set “J774-Dual cytotoxicity” (Mouse Reporter Cell Line J774) was above 111 µM. Moreover, the “J774 IRF % activation at peak” value in data set [3] (setting [6]) was found to be 54.52%.
Take `Cc1ccc(NC(=O)c2cc(NC(=O)c3cccs3)ccc2N2CCOCC2)cc1` [NB-17]: the EC50 is 8.79 µM in data set [2] (setting [5]) and 8.68 µM in data set [3] (setting [5]). For the same compound, the CC50 in “J774-Dual cytotoxicity” (Mouse Reporter Cell Line J774) is above 25 µM. Further, the “J774 IRF % activation at peak” value in data set [3] (setting [6]) is reported as 16.67%.
Take `Cc1ccc(NC(=O)c2cc(NC(=O)c3cccs3)ccc2N2CCOCC2)cc1Br` [NB-23]: the figures for the 50% effective concentration (EC50) in data set [2] (setting [5]) and in data set [3] (setting [5]) were 9.53 µM and 6.56 µM, respectively. The half-maximal cytotoxic concentration (CC50) in the data set “J774-Dual cytotoxicity” (Mouse Reporter Cell Line J774) was 36.9 µM. In addition, the “J774 IRF % activation at peak” value in data set [3] (setting [6]) was found to be 72.79%.
Taken in the same sequence, the figures for `COc1ccc(C(=O)Nc2cc(-c3nc4cc(C)c(C)cc4o3)ccc2C)cc1[N+](=O)[O-]` [ND13, N-(5-(5,6-dimethylbenzo[d]oxazol-2-yl)-2-methylphenyl)-4-methoxy-3-nitrobenzamide] were 1.32 µM, 0.956 µM, 4.32 µM and 220.5%.
Take `COc1ccc(C(=O)Nc2nc(-c3cc4ccccc4oc3=O)cs2)cc1` [ND-1]: the EC50 was determined as 8.75 µM in data set [2] (setting [5]) and 8.82 µM in data set [3] (setting [5]). Also, the 50% cytotoxic concentration (CC50) in the data set “J774-Dual cytotoxicity” (Mouse Reporter Cell Line J774) was above 25 µM. Also, the “J774 IRF % activation at peak” value in data set [3] (setting [6]) worked out at 28.40%.
The matching figures for `COc1ccc(C(=O)Nc2cc(-c3nc4cc(C(C)C)ccc4o3)ccc2C)cc1[N+](=O)[O-]` [ND-2]: 11.4 µM, 4.81 µM, 65.8 µM and 141.80%.
As for `COc1ccc(C(=O)Nc2cc(-c3nc4cc(C)c(C)cc4o3)ccc2C)cc1[N+](=O)[O-]` [ND-13, N-(5-(5,6-dimethylbenzo[d]oxazol-2-yl)-2-methylphenyl)-4-methoxy-3-nitrobenzamide], in data set [1], the “IP-10 induction in human monocyte-derived macrophages” value is recorded as “dose-dependent IP-10 induction”.
Regarding `COc1ccc(-c2nc3cc(C(C)C)ccc3o2)cc1NC(=O)c1ccc(C)c([N+](=O)[O-])c1` [ND-16], the half-maximal effective concentration (EC50) stood at 6.75 µM in data set [2] (setting [5]) and 3.58 µM in data set [3] (setting [5]). Also, the CC50 in “J774-Dual cytotoxicity” (Mouse Reporter Cell Line J774) was above 25 µM. Also, the “J774 IRF % activation at peak” value in data set [3] (setting [6]) turned out to be 83.02%.
Consider `COCOc1ccc2oc(-c3ccc(C)c(NC(=O)c4ccc(OC)c([N+](=O)[O-])c4)c3)nc2c1` [ND-95, 4-methoxy-N-(5-(5-(methoxymethoxy)benzo[d]oxazol-2-yl)-2-methylphenyl)-3-nitrobenzamide], for which the half-maximal effective concentration (EC50) in data set [2] (setting [5]) is 3.01 µM; in data set [3] (setting [5]) it was 4.1 µM. For the same compound, in the data set “J774-Dual cytotoxicity” (Mouse Reporter Cell Line J774), the 50% cytotoxic concentration (CC50) was above 25 µM. Moreover, in data set [3] (setting [6]), the “J774 IRF % activation at peak” value came to 98.11%.
